This is an account of results in patent publication US7985774B2, “Use of 3,5-seco-4-nor-cholestane derivatives for obtaining a cytoprotective drug” (Trophos, priority 2006, dated 2011).

Data set [1] concerns rabbit ventricular cardiomyocytes. Kind of data set: Annexin V marking of phosphatidylserine (apoptosis) after doxorubicin. It counts as cell-based. Conditions: doxorubicin 1 μM alone, 3 hrs; control 100%. As to the method: (§1) Isolated ventricular cells are obtained from hearts of male New Zealand rabbits as described in A. d'Anglemont de Tassigny et al., Fund. Clin. Pharmacol, 18: 531-38, 2004. Briefly, the rabbits (2.0-2.5 kg) are anaesthetized with a pentobarbital solution (50 mg/kg) and they then receive heparin (200 IU/kg). The hearts are excised and immediately perfused, for 10-15 minutes by means of a Langendorff apparatus without recirculation with an oxygenated tyrode (calcium-free) isotonic solution (95%, 2-5% CO2) (in mM: NaCl 135, KCl 5.4, Na2PO4 0.33, MgCl2 1.0, HEPES 10, pH adjusted to 7.4 with 1N NaOH at 37° C., 280-300 mOsmol/kgH2O). Next, all the hearts are perfused for 3 minutes in the “recirculation” mode with the same calcium-free Tyrode solution (coronary flow rate, 10-15 mL/min) added with 1 mg/mL of type II collagenase and 0.28 mg/mL of XIV type protease. Finally, all the hearts are perfused in a mode without any recirculation with the same solution of Tyrode supplemented with 0.3 mM of CaCl2 for 10 min. The left ventricle is removed and cut into small pieces; cell dissociation is achieved by mild mechanical stirring. Extracellular calcium is added by increments every 15 minutes, in order to reach a physiological concentration of 1.0 mM. […]
Annexin V marking of phosphatidylserine was used as a quantitative method for measuring apoptosis by using the MiniMacs cell isolation kit (Miltenyi Biotec, Bergisch, Gladbach, Germany). […] The column is removed from the magnetic field, the cells exposing phosphatidylserine, magnetically retained, are eluted as a positive fraction and counted with a Mallassez cell counter. […]
(§2) Apoptosis is induced in isolated cardiomyocytes by 3-8 hour exposure to 1 μM of doxorubicin added into an isotonic solution containing (in mM) NaCl 110, KCl 5.4, Na2PO4 0.33, NaHCO3 25, glucose 5, MgCl2 0.8, CaCl2 1, pH adjusted to 7.4. […] The contractility of cardiomyocytes was measured every hour during the 8 hrs of exposure to doxorubicin. […]

The subject of another data set is caspase-3. Kind of data set: Caspase-3 activity (apoptosis) after doxorubicin. It counts as cell-based, rabbit. The note with it: doxorubicin 1 μM alone, 8 hrs; control 19±9. As for the experimental part: as §1
Caspase-3 activity is used as a quantitative method for measuring apoptosis. […] The fluorogenic substrate for measuring caspase-3 activity (DEVD) is marked with the fluorochrome, 7-amino-4-methyl coumarine (AMC), which produces […] fluorescence detectable in UV light at 360/460 nm for 210 min. […]
as §2

The test system of data set [2] is rabbit ventricular cardiomyocytes. Kind of data set: Contractile dysfunction test induced by doxorubicin (sarcomer shortening). It counts as cell-based. The note with it: doxorubicin 1 μM alone, after 4 hrs of exposure; control −19.49±2.06%. As to the method: A stock solution of 3,5-seco-4-nor-cholestan-5-one oxime-3-ol at a concentration of 10 mM in 100% DMSO was used.
The final concentration in DMSO was the same for all the experimental points, independently of the molecular concentrations used.
3,5-seco-4-nor-cholestan-5-one oxime-3-ol was tested at concentrations of 0.1 and 0.3 μM, diluted in a Tyrode solution (composition in mmol/L: NaCl 135, KCl 5.4, NaH2PO4 0.33, CaCl2 1.2, MgCl2 1.0, Hepes 10; pH adjusted to 7.4 with NaOH).
Isolated ventricular cells are obtained from hearts of male New Zealand rabbits as described in A. d'Anglemont de Tassigny et al., Fund. Clin. Pharmacol, 18: 531-38, 2004. Briefly, the rabbits (2.0-2.5 kg) are anaesthetized with a pentobarbital solution (50 mg/kg) and they then receive heparin (200 IU/kg). The hearts are excised and immediately perfused, for 10-15 minutes by means of a Langendorff apparatus without recirculation with an oxygenated tyrode (calcium-free) isotonic solution (95%, 2-5% CO2) (in mM: NaCl 135, KCl 5.4, Na2PO4 0.33, MgCl2 1.0, HEPES 10, pH adjusted to 7.4 with 1N NaOH at 37° C., 280-300 mOsmol/kgH2O). […]
The myocytes were selected for the study according to the following criterion: a rod-like aspect with very apparent striations and no intracellular vacuola, no spontaneous contraction when they are stimulated with 1 mM Ca^2+, and with constant rest length and contraction amplitude. The length of the sarcomers was measured by means of a video image analysis program and the data were acquired at a rate of 240 samples/s. […]
as §2

The next data set concerns C57BL6 mice. Kind of data set: In vivo model of myocardium infarction (coronary occlusion-reperfusion). As for the experimental part: The purpose of this experiment is to study in vivo the cardioprotective properties of the compounds, 3,5-seco-4-nor-cholestan-5-one oxime-3-ol and 3,5-seco-4-nor-cholestan-5-one oxime-3-N,N-dimethylglycine ester, in a murine coronary occlusion-reperfusion model.
The compounds to be tested are administered intravenously in mice, 5 minutes before reperfusion of the myocardium ischemiated beforehand. As controls, carriers of the compounds beta-cyclodextrin (hereafter called βCD) and water, respectively, are administered under the same conditions as for the compounds.
In order to determine the effect of the tested compounds, the size of the infarction is measured after 24 hour reperfusion.
6-8 week old male C57BL6 mice are anaesthetized with sodium pentobarbital (50 mg/kg i.p.) and are ventilated after intubation with an O2/CO2 (95%/5%) mixture throughout the experiment. The surface electrocardiogram (ECG) is recorded and viewed on an oscilloscope all along surgery. Under strict asepsis conditions, the jugular vein is catheterized for intravenous administration of the compounds. A left lateral thoracotomy is performed and after pericardiotomy, a major branch of the left coronary artery is localized in the latero-posterior region of the left ventricle. A prolene no. 8 suture is positioned around this artery so as to form a mobile loop for making a temporary coronary occlusion.
All the mice were subject to a 30 minute temporary coronary occlusion. Ischemia of the myocardium region is confirmed by cyanosis of the myocardium surface and a deviation of the ST segment of the electrocardiogram.
Each of the compounds (treated group, n=10) or its solvent (control group, n=10) was administered as a bolus intravenously, 5 min before lifting the 30 minutes of coronary occlusion.
3,5-seco-4-nor-cholestan-5-one oxime-3-ol, dissolved beforehand to a final concentration of 0.46 mg/ml in a 30% βCD solution in phosphate buffer prepared by saturation followed by centrifugation, is administered at a dosage of 1 mg/kg.
3,5-seco-4-nor-cholestan-5-one oxime-3-N,N-dimethylglycine ester, dissolved beforehand to a final concentration of 1.56 mg/ml in sterile water by stirring and sonication, is administered at a dosage of 3.9 mg/kg.
The same volume of carrier is administered in the corresponding control groups.
Twenty four hours after the end of coronary occlusion, the mice are re-anaesthetized with sodium pentobarbital (50 mg/kg i.p.) and heparin is administered intravenously (Choay© heparin 1,000 IU/kg). A ligature of the coronary artery is achieved at the same location having been subject to the first occlusion 24 h previously. The mice are then euthanized with a lethal saturated dose of potassium chloride and their heart is rapidly excised and then mounted through the aorta artery on a retrograde perfusion system of the Langendorff type.
A 5% Evans blue solution is perfused retrogradely so that the healthy myocardium is colored in blue; the area made ischemic during the coronary occlusion, or <<area of risk AR>> remaining uncolored by default.
The left ventricle is then cut out into 5 slices with equal thicknesses (1 mm) by means of a slicer specially designed for hearts of mice (Les Isolants de Paris, Palaiseau), which are then weighed.
These slices are incubated in a 1% triphenyltetrazolium chloride solution (TTC, Sigma, Poole, UK) at pH 7.4 for 20 min at 37° C. and then set in 4% formol. TTC has the property of coloring the non-infarcted myocardium in red, and so showing the infarcted areas in white. Each heart slice is placed under a stereo microscope for taking a high definition digital photograph.
Quantification of infarction and the area of risk is carried out by planimetry (Scion Image, Scion, Frederick Md., USA) and referred to the weight of each slice.
The area of risk (non-blue area) is expressed as a percentage of the weight of the left ventricle. The infarction sizes are expressed as a percentage of the weight of the area of risk. […]

Where [3] appears, read: 3.9 mg/kg i.v. bolus in water 5 min before reperfusion, 30 min occlusion, 24 h reperfusion, mean±SEM.

On to `COc1cccc2c1C(=O)c1c(O)c3c(c(O)c1C2=O)C[C@@](O)(C(=O)CO)C[C@@H]3O[C@H]1C[C@H](N)[C@H](O)[C@H](C)O1` [doxorubicin, reference compound], for which, in data set [1], the “Apoptosis as % of change in annexin V marking” value was found to be 320%. In the data set with caspase-3, the caspase-3 activity was found to be 120 ± 15 fmol/min. In addition, the “shortening of the peak relatively to the base line” value in data set [2] is recorded as −53.20±7.70%.
With `CC(C)CCC[C@@H](C)[C@H]1CC[C@H]2[C@@H]3CCC(=NO)[C@](C)(CCCOC(=O)CN(C)C)[C@H]3CC[C@]12C` [3,5-seco-4-nor-cholestan-5-one oxime-3-N,N-dimethylglycine ester], in the data set on C57BL6 mice (setting [3]), the “Area of risk (percentage of the weight of the left ventricle)” value is 8 +/− 3% and the “Infarction size (percentage of the weight of the area of risk)” value is 23 +/− 9%. In the data set on C57BL6 mice (3.9 mg/kg i.v., versus carrier (water)), this compound had an Infarction size reduction of 42.5%.
